Series [1] deals with SH-SY5Y. The series can be described thus: Upregulation of BDNF expression in human SH-SY5Y cells at 20 uM incubated for 2 hrs by ELISA. The series is classed as functional, cell-based.
Series [2] has as its system SH-SY5Y. The series is described as follows: Neuroprotective activity against corticosterone-induced cytotoxicity in human SH-SY5Y cells assessed as rescue of BDNF expression at 20 uM preincubated with compound for 2 hrs followed by corticosterone addition and measured 2 hrs after replacement with fresh media by ELISA (reference value: 5 pg/ml). The series is classed as functional, cell-based.

In series [3] the test system is SH-SY5Y. The series is described as follows: Neuroprotective activity against corticosterone-induced cytotoxicity in human SH-SY5Y cells assessed as […] at 20 uM preincubated with compound for 2 hrs followed by corticosterone addition and measured 2 hrs after replacement with fresh media by ELISA. The series is classed as functional, cell-based. On the technique in general: ELISA stands for enzyme-linked immunosorbent assay.

Series [4] concerns SH-SY5Y. The series is described as follows: Inhibition of corticosterone release in human SH-SY5Y cells at 20 uM incubated for 2 hrs by ELISA. The series is classed as functional, cell-based.
In series [5] the test system is SH-SY5Y. The series is described as follows: Neuroprotective activity against corticosterone-induced cytotoxicity in human SH-SY5Y cells assessed as rescue of cell viability at 20 uM preincubated with compound for 24 hrs followed by corticosterone stimulation and measured after 48 hrs by MTT assay. The series is classed as functional, cell-based. Particulars: time 72.0 hrs. Background: Tetrazolium dyes change colour on reduction, which living cells bring about.

Series [6] has as its system SH-SY5Y. The series is described as follows: Cytotoxicity against human SH-SY5Y cells assessed as reduction in cell viability at 20 uM measured after 48 hrs by MTT assay. The series is classed as toxicity, cell-based.
Series [7] concerns SH-SY5Y. The series can be described thus: Neuroprotective activity against corticosterone-induced cytotoxicity in human SH-SY5Y cells assessed as rescue of cell viability at 5 nM preincubated with compound for 24 hrs followed by corticosterone stimulation and measured after 48 hrs by MTT assay (reference value: 41%). Particulars: time 72 hrs. The series is classed as functional.

Series [8] concerns SH-SY5Y. The series is described as follows: Neuroprotective activity against corticosterone-induced cytotoxicity in human SH-SY5Y cells assessed as BDNF concentration at 5 nM preincubated with compound for 2 hrs followed by corticosterone addition and measured 2 hrs after replacement with fresh media by ELISA (reference value: 5 pg/ml). The series is classed as functional.
In series [9] the test system is SH-SY5Y. The series is described as follows: Cytotoxicity against human SH-SY5Y cells assessed as reduction in cell viability at 5 nM measured after 48 hrs by MTT assay. The series is classed as toxicity, cell-based. Particulars: 0.005 µM.
Series [10] in a line: Upregulation of BDNF expression in human SH-SY5Y cells at 5 nM incubated for 2 hrs by ELISA. The series is classed as functional.
In series [11] the test system is SH-SY5Y. The series is described as follows: Neuroprotective activity against corticosterone-induced cytotoxicity in human SH-SY5Y cells assessed as rescue of cell viability at 10 uM preincubated with compound for 24 hrs followed by corticosterone stimulation and measured after 48 hrs by MTT assay (reference value: 41%). The series is classed as functional. Particulars: time 72 hrs.

The subject of series [12] is SH-SY5Y. The series is described as follows: Neuroprotective activity against corticosterone-induced cytotoxicity in human SH-SY5Y cells assessed as rescue of cell viability at 5 uM preincubated with compound for 24 hrs followed by corticosterone stimulation and measured after 48 hrs by MTT assay (reference value: 41%). The series is classed as functional. Particulars: time 72 hrs.

Series [13] deals with SH-SY5Y. The series is described as follows: Neuroprotective activity against corticosterone-induced cytotoxicity in human SH-SY5Y cells assessed as rescue of cell viability at 10 uM preincubated with compound for 24 hrs followed by corticosterone stimulation and measured after 48 hrs by MTT assay relative to control. The series is classed as functional. Particulars: time 72 hrs.

Series [14] has as its system SH-SY5Y. The series can be described thus: Neuroprotective activity against corticosterone-induced cytotoxicity in human SH-SY5Y cells assessed as BDNF concentration at 10 uM preincubated with compound for 2 hrs followed by corticosterone addition and measured 2 hrs after replacement with fresh media by ELISA (reference value: 5 pg/ml). The series is classed as functional.

The nature of series [15]: Downregulation of corticosterone release in human SH-SY5Y cells at 10 uM incubated for 2 hrs by ELISA. The series is classed as functional.
For series [16], the system named is SH-SY5Y. The series can be described thus: Neuroprotective activity against corticosterone-induced cytotoxicity in human SH-SY5Y cells assessed as rescue of cell viability at 10 uM preincubated with compound for 48 hrs followed by corticosterone stimulation and measured after 48 hrs by MTT assay relative to control. The series is classed as functional. Particulars: time 96 hrs.

Series [17] relates to SH-SY5Y. The series can be described thus: Cytotoxicity against human SH-SY5Y cells assessed as reduction in cell viability at 10 uM measured at 24 to 96 hrs by MTT assay. The series is classed as toxicity, cell-based. Particulars: time 24-96 hrs.
Series [18] relates to SH-SY5Y. The series is described as follows: Neuroprotective activity against corticosterone-induced cytotoxicity in human SH-SY5Y cells assessed as rescue of cell viability at 20 uM preincubated with compound for 24 hrs followed by corticosterone stimulation and measured after 48 hrs by MTT assay (reference value: 41%). Particulars: time 72 hrs. The series is classed as functional.

The subject of series [19] is SH-SY5Y. The series is described as follows: Neuroprotective activity against corticosterone-induced cytotoxicity in human SH-SY5Y cells assessed as rescue of cell viability at 10 uM preincubated with compound for 96 hrs followed by corticosterone stimulation and measured after 48 hrs by MTT assay relative to control. The series is classed as functional. Particulars: time 144 hrs.

The test system of series [20] is SH-SY5Y. The series can be described thus: Cytotoxicity against human SH-SY5Y cells assessed as reduction in cell viability at 1 to 50 uM measured after 48 hrs by MTT assay. The series is classed as toxicity, cell-based. Particulars: dose 1-50 µM.
The subject of series [21] is SH-SY5Y. The series is described as follows: Neuroprotective activity against corticosterone-induced cytotoxicity in human SH-SY5Y cells assessed as […] at 10 uM preincubated with compound for 2 hrs followed by corticosterone addition and measured 2 hrs after replacement with fresh media by ELISA. The series is classed as functional.
Series [22] is described as follows: Upregulation of BDNF expression in human SH-SY5Y cells at 10 uM incubated for 2 hrs by ELISA. The series is classed as functional.
The subject of series [23] is SH-SY5Y. The series can be described thus: Neuroprotective activity against corticosterone-induced cytotoxicity in human SH-SY5Y cells assessed as rescue of cell viability at 10 uM preincubated with compound for 72 hrs followed by corticosterone stimulation and measured after 48 hrs by MTT assay relative to control. The series is classed as functional. Particulars: time 120 hrs.

Activity calls are given as the source filed them. The rule behind the calls is not given here.

With `C=C(C)[C@@H]1CCC(C)=C[C@H]1c1c(O)cc(CCCCC)cc1O` [CANNABIDIOL], the outcome with SH-SY5Y [1], with SH-SY5Y [2] and in the series with SH-SY5Y [3] was inactive. In addition, in the series on SH-SY5Y [4], the inhibition entry is “inactive”. For the same compound, the result in the series on SH-SY5Y [5] was Active. The Activity result in the series with SH-SY5Y [6] is given as “Non-Toxic”.
As to `O=c1cc(-c2ccccc2)oc2c(O)c(O)ccc12` [7,8-DIHYDROXYFLAVONE], the Activity is 86% in the series with SH-SY5Y [7], 21 pg/mL in the series with SH-SY5Y [8], “Non-Toxic” with SH-SY5Y [9] and 19 pg/mL in [10].
`CC1=C[C@H]2c3c(O)cc(C)cc3OC(C)(C)[C@@H]2CC1`: the Activity in the series on SH-SY5Y [11] came to 96%; in the series on SH-SY5Y [12], 79%; in the series with SH-SY5Y [13], 89%; in the series with SH-SY5Y [14] it was 18 pg/mL; in [15], 0.22 pg/mL; in the series on SH-SY5Y [16] it was 90%. Further, the Activity entry is “Non-Toxic” with SH-SY5Y [17]; 97% in the series on SH-SY5Y [18]; 99% in the series on SH-SY5Y [19]; “Non-Toxic” in the series on SH-SY5Y [20]; 7 pg/mL with SH-SY5Y [21]; 21 pg/mL in series [22]. The Activity with SH-SY5Y [23] turned out to be 95%.
`CC1=C[C@@H]2c3c(O)cc(C)cc3OC(C)(C)[C@H]2CC1`: the Activity in the series with SH-SY5Y [11] was found to be 99%; in the series on SH-SY5Y [12], 83%; with SH-SY5Y [13], 92%; in the series with SH-SY5Y [14], 25 pg/mL; in series [15], 0.43 pg/mL; with SH-SY5Y [16], 98%. Also, the Activity entry in the series with SH-SY5Y [17] is “Non-Toxic”; in the series with SH-SY5Y [18] it was 101%; with SH-SY5Y [19], 104%; in the series with SH-SY5Y [20], “Non-Toxic”; in the series with SH-SY5Y [21], 5 pg/mL; in [22], 29 pg/mL. Also, in the series on SH-SY5Y [23], the Activity amounted to 102%.

These data come from ChEMBL document CHEMBL5357085, “Synthesis and Evaluation of Natural and Unnatural Tetrahydrocannabiorcol for Its Potential Use in Neuropathologies” (J Nat Prod, 2024).
